Measured values reported in patent publication US20240140944A1, “NOVEL NAPHTHYRIDINONE DERIVATIVE HAVING INHIBITORY ACTIVITY AGAINST ECTONUCLEOTIDE PYROPHOSPHATASE-PHOSPHODIESTERASE AND USE THEREOF” (TXINNO BIOSCIENCE INC., priority 2020, published 2024).
Where a name gives a salt, the structure may show the parent alone.

Experiments:
[1] = target: T1, human recombinant ENPP1 enzymes (Homo sapiens, UniProt P22413); assay: ENPP1 Enzyme Assay with cGAMP Substrate (AMP-Glo); type: biochemical; conditions: human recombinant ENPP1 3 ng/reaction, cGAMP 5 μM, 37° C. 90 minutes, average of two or more tests; read-out: Enzymatic activity IC50
T1 construct: purchased R & D systems
T1 sequence (P22413 1-925): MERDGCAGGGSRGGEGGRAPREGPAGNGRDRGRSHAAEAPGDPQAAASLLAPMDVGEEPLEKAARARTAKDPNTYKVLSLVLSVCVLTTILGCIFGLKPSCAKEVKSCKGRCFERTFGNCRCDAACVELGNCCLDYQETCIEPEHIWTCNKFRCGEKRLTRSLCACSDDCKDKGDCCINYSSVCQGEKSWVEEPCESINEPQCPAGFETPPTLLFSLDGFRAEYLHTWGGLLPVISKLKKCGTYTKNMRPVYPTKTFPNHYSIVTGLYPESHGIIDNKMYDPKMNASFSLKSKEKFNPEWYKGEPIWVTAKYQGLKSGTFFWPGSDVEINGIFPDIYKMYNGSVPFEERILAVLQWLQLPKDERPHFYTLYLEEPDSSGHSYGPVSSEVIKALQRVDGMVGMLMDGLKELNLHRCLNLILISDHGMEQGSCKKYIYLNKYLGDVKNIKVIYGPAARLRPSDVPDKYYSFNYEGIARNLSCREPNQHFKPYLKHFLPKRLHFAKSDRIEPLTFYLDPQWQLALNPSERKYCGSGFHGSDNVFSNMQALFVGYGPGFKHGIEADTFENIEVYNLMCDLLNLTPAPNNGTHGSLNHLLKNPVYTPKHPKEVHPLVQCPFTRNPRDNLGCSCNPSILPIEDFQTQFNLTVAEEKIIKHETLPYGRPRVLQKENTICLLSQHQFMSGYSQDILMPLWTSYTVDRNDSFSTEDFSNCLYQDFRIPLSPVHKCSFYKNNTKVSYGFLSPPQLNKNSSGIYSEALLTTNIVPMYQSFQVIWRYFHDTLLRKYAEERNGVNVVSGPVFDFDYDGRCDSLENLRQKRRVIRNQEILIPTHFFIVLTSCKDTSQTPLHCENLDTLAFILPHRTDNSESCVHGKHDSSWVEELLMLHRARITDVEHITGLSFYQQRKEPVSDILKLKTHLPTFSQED
Procedure, shortened: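 Human recombinant ENPP1 (3 ng/reaction) preincubated 5–10 min at RT with inhibitor, then reacted with 5 µM cGAMP for 90 min at 37 °C in 50 mM Tris pH 8.5, 250 mM NaCl, 0.5 mM CaCl2, 1 µM ZnCl2, 1% DMSO. AMP produced read by AMP-Glo luminescence; IC50 from 3-parameter fit, averaged over ≥2 runs.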

[2] = system: interferon regulatory factor 3 (IRF3) in HCT116-Dual cells; assay: HCT116-Dual Cell Luciferase Assay (ISG54 promoter, IRF3 activity); type: cell-based; conditions: ENPP1 inhibitor usually 10 μM plus cGAMP 10 μM, 48 hours, Lucia luciferase
Excerpt: HCT116-Dual™ cells express genes encoding luciferase secreted under the control of the interferon-stimulated gene 54 (ISG54) promoter along with five interferon-stimulated response elements. The HCT116-Dual™ cell line was used to measure and monitor the activity of interferon regulatory factor 3 (IRF3), which induces production of type I interferon and relates to downstream signaling, and Lucia secreted in the culture medium was used to generate luminescence in a luciferase reaction.
HCT116-Dual™ cells were cultured at 2×10^4 cells/well (93.4 μL) in a 96-well plate for one day in a DMEM medium containing 10% FBS and 25 mM HEPES (pH 7.2-7.5). The cells were treated with 3.3 μL of ENPP1 inhibitor (usually 10 μM) and then 3.3 μL of cGAMP (10 μM) to set the final volume to 100 μL (The final fraction of DMSO was 0.1%). The cells treated with ENPP1 inhibitor and cGAMP were cultured at 37° C. for 48 hours and 50 μL of Quanti-Luc reaction solution was added to 20 μL of cell culture medium to measure luciferase activity. The increase in interferon regulatory factor 3 (IRF3) by the compound compared to cGAMP was determined as fold.

SMILES | IC50 [1] | Cellular activity: increase in IRF3 by the compound compared to cGAMP, as fold [2]
Cl.NS(=O)(=O)N(Cc1ccc(-c2ccnc3[nH]c(=O)ccc23)cc1F)C1CC1 [Example 54, N-cyclopropyl-N-(2-fluoro-4-(7-oxo-7,8-dihydro-1,8-naphthyridin-4-yl)benzyl)sulfamide hydrochloride] | < 1 µM | B (1< Fold <2)
NS(=O)(=O)N1Cc2ccc(-c3ccnc4[nH]c(=O)ccc34)cc2C1 [Example 64, 5-(7-oxo-7,8-dihydro-1,8-naphthyridin-4-yl)isoindolin-2-yl)sulfamide hydrochloride] | < 1 µM | B (1< Fold <2)
CCN(Cc1ccc(-c2ccnc3[nH]c(=O)ccc23)cc1F)S(N)(=O)=O.Cl [Example 53, N-ethyl-N-(2-fluoro-4-(7-oxo-7,8-dihydro-1,8-naphthyridin-4-yl)benzyl)sulfamide hydrochloride] | < 1 µM | B (1< Fold <2)
Cl.O=c1ccc2c(-c3cc4c(cc3F)CCNC4)ccnc2[nH]1 [Example 28, 5-(6-fluoro-1,2,3,4-tetrahydroisoquinolin-7-yl)-1,8-naphthyridin-2(1H)-one hydrochloride] | < 1 µM | B (1< Fold <2)
NS(=O)(=O)NCc1ccc(-c2ccnc3c2CCC(=O)N3)cc1F [Example 142, N-(2-fluoro-4-(7-oxo-5,6,7,8-tetrahydro-1,8-naphthyridin-4-yl)benzyl)sulfamide] | < 1 µM | B (1< Fold <2)
NS(=O)(=O)Nc1ccc(Nc2ccnc3[nH]c(=O)ccc23)cc1 [Example 97, N-(4-((7-oxo-7,8-dihydro-1,8-naphthyridin-4-yl)amino)phenyl)sulfamide dihydrochloride] | < 1 µM | B (1< Fold <2)
NS(=O)(=O)NCc1cccc(-c2ccnc3c2CCC(=O)N3)c1 [Example 140, N-(3-(7-oxo-5,6,7,8-tetrahydro-1,8-naphthyridin-4-yl)benzyl)sulfamide] | < 1 µM | B (1< Fold <2)
NCCc1ccc(F)c(Nc2ccnc3[nH]c(=O)ccc23)c1 [Example 79, 5-((5-(2-aminoethyl)-2-fluorophenyl)amino)-1,8-naphthyridin-2(1H)-one dihydrochloride] | 1 to 10 µM | B (1< Fold <2)
Cl.O=c1ccc2c(-c3ccc(CNC4CC4)c(F)c3)ccnc2[nH]1 [Example 25, 5-(4-((cyclopropylamino)methyl)-3-fluorophenyl)-1,8-naphthyridin-2(1H)-one hydrochloride] | 1 to 10 µM | A (>2)
CCN(CCc1cccc(Nc2ccnc3[nH]c(=O)ccc23)c1)S(N)(=O)=O [Example 94, N-ethyl-N-(3-((7-oxo-7,8-dihydro-1,8-naphthyridin-4-yl)amino)phenethyl)sulfamide dihydrochloride] | < 1 µM | B (1< Fold <2)
Cl.NS(=O)(=O)N1CCc2ccc(-c3ccnc4c3CCC(=O)N4)cc2C1 [Example 145, (7-(7-oxo-5,6,7,8-tetrahydro-1,8-naphthyridin-4-yl)-3,4-dihydroisoguinolin-2(1H)-yl)sulfamide hydrochloride] | < 1 µM | B (1< Fold <2)
Cl.NCc1ccc(-c2ccnc3[nH]c(=O)ccc23)cc1 [Example 10, 5-(4-(aminomethyl)phenyl)-1,8-naphthyridin-2(1H)-one hydrochloride] | < 1 µM | B (1< Fold <2)
CC(N)c1ccc(-c2ccnc3[nH]c(=O)ccc23)cc1.Cl (stereo not shown) [Example 14, 5-(4-(1-aminoethyl)phenyl)-1,8-naphthyridin-2(1H)-one hydrochloride] | < 1 µM | B (1< Fold <2)
NS(=O)(=O)NCc1ccc(-c2ccnc3[nH]c(=O)ccc23)c(F)c1F [Example 43, N-(2,3-difluoro-4-(7-oxo-7,8-dihydro-1,8-naphthyridin-4-yl)benzyl)sulfamide hydrochloride] | < 1 µM | B (1< Fold <2)
C[C@@H](c1ccc(-c2ccnc3[nH]c(=O)ccc23)cc1)N(C)S(N)(=O)=O [Example 61, (S)-(N-methyl-N-(1-(4-(7-oxo-7,8-dihydro-1,8-naphthyridin-4-yl)phenyl)ethyl)sulfamide hydrochloride] | < 1 µM | B (1< Fold <2)
NS(=O)(=O)NCc1cccc(-c2ccnc3[nH]c(=O)ccc23)c1 [Example 37, N-(3-(7-oxo-7,8-dihydro-1,8-naphthyridin-4-yl)benzyl)sulfamide] | < 1 µM | B (1< Fold <2)
CC(C)NCc1ccc(-c2ccnc3[nH]c(=O)ccc23)c(F)c1.Cl [Example 21, 5-(2-fluoro-4-((isopropylamine)methyl)phenyl)-1,8-naphthyridin-2(1H)-one hydrochloride] | > 10 µM | B (1< Fold <2)
NS(=O)(=O)NCc1ccc(-c2ccnc3[nH]c(=O)ccc23)c(F)c1 [Example 42, N-(3-fluoro-4-(7-oxo-7,8-dihydro-1,8-naphthyridin-4-yl)benzyl)sulfamide hydrochloride] | < 1 µM | A (>2)
CN(Cc1ccc(-c2ccnc3[nH]c(=O)ccc23)cc1F)S(N)(=O)=O.Cl [Example 52, N-(2-fluoro-4-(7-oxo-7,8-dihydro-1,8-naphthyridin-4-yl)benzyl)-N-methylsulfamide hydrochloride] | < 1 µM | B (1< Fold <2)
Cl.NCc1ccc(-c2ccnc3[nH]c(=O)ccc23)cc1F [Example 12, 5-(4-(aminomethyl)-3-fluorophenyl)-1,8-naphthyridin-2(1H)-one hydrochloride] | < 1 µM | A (>2)
NS(=O)(=O)Nc1cc(-c2ccnc3[nH]c(=O)ccc23)ccc1F [Example 36, N-(2-fluoro-5-(7-oxo-7,8-dihydro-1,8-naphthyridin-4-yl)phenyl)sulfamide hydrochloride] | < 1 µM | B (1< Fold <2)
CCN(Cc1ccc(-c2ccnc3[nH]c(=O)ccc23)c(F)c1)S(N)(=O)=O.Cl [Example 56, N-ethyl-N-(3-fluoro-4-(7-oxo-7,8-dihydro-1,8-naphthyridin-4-yl)benzyl)sulfamide hydrochloride] | < 1 µM | B (1< Fold <2)
NS(=O)(=O)N1CCc2ccc(-c3ccnc4[nH]c(=O)ccc34)cc2C1 [Example 65, 7-(7-oxo-7,8-dihydro-1,8-naphthyridin-4-yl)dihydroisoquinoline-2(1H)-sulfamide hydrochloride] | < 1 µM | B (1< Fold <2)
